Series [1] can be described thus: skin penetration on topical administration. The conditions noted are these: topical administration (ointment, lotion or cream). From the text:
After topical administration, the compound(s) penetrate through the skin and concentrate in the fatty tissue.

The test system of series [2] is ERβ positive breast cancer. Nature of the series: treatment success of Anastrozol and Letrozol compared with the topical prodrug (Example 2). Particulars: for treatment success: patients, treated according to current treatment guidelines. Format: in vivo, human. The method, then: Studies were carried out on patients suffering from ERβ positive breast cancer.
First, the patients were treated with non-steroidal aromatase-inhibitors Anastrozol or Letrozol, the treatment was carried out according to the respective current treatment guidelines.
Then, said patients were treated with the pharmaceutical composition comprising the prodrug according to the present invention, that is, the prodrug (4-OHA) was applied topically to the affected breast.

In series [3] the test system is ER positive breast cancer. Nature of the series: shrinking of breast tumor, 2.5 wt.-% 4-OHA crème (Example 1.2). It is filed as in vivo, human. The conditions noted are these: 4 ml crème with 2.5 wt.-% 4-OHA, 2 times/day, after 3-5 weeks. On the procedure:
1.2 Application of 4 ml of a crème (2 times/day) comprising 2.5 wt.-% 4-OHA to a breast suffering from an ER positive breast cancer.

The test system of series [4] is ERβ positive breast cancer tumors. Nature of the series: shrinking of breast tumor tissue, topical prodrug (Example 1.1). It is filed as in vivo, human. Particulars: patients, tumors max 2 cm, after three weeks of treatment. The method, then: 1.1 Patients that were diagnosed (by mammography) with ERβ positive breast cancer tumors with a maximum size of 2 cm were treated with the pharmaceutical composition comprising the prodrug of the present invention: The prodrug was applied topically to the affected breast.

In series [5] the target is ERβ (Homo sapiens, UniProt Q92731). Nature of the series: binding affinity towards ERβ compared with ERα. Particulars: fold higher for ERβ.
Chain of ERβ (Q92731 whole entry): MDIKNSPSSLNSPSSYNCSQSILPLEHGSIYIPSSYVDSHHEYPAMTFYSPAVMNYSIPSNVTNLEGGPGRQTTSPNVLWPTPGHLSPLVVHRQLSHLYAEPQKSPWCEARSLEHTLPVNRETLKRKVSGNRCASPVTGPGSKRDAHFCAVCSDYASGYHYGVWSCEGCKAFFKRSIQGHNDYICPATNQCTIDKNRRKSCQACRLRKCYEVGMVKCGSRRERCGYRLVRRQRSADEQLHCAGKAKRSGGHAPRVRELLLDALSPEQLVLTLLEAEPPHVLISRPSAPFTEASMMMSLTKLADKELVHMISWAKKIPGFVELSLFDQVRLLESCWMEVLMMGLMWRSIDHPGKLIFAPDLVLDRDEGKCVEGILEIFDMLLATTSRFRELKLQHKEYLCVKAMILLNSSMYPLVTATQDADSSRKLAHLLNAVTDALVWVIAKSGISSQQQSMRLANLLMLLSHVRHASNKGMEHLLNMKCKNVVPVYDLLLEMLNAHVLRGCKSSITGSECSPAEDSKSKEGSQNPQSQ
For series [6], the system named is MDA-MB-231 cells. The experiment in a line: inhibition of proliferation of MDA MB-231 cells. Format: cell-based, human. On the procedure:
MDA-MB-231 cell line is a highly aggressive, invasive, and poorly differentiated epithelial human breast cancer cell line. It lacks estrogen receptor a (ERα) and progesterone receptor (PR) expression, as well as HER2 (human epidermal growth factor 2) amplification. MDA-MB-231 cell line is ERβ positive. It is a model cell line for triple negative breast cancer (TNBC) being ERβ positive.
Two different concentrations of MDA-MB-231 cells (1.0e3 and 2.5e3) were incubated with increasing concentrations of 4-OHT (K+; 0.5 μM; 1 μM; 5 μm; 10 μM; 20 μM). The cells were incubated for 6 days (d). Then, absorption at 492 nm was measured.

Consider five compounds from US20220054501A1, “[…] ESTROGEN-RECEPTOR b (ER.beta) POSITIVE BREAST TUMOR” (DCIC Biopharmaceutical Limited, priority 2018, published 2022).

Take `C[C@]12CCC(=O)C(O)=C1CC[C@@H]1[C@@H]2CC[C@]2(C)C(=O)CC[C@@H]12` [4-OHA, 4-hydroxyandrost-4-ene-3,17-dione]: the skin penetration capabilities result in series [1] is “excellent skin penetration capabilities”. Also, in series [2] (topical, after unsuccessful Anastrozol or Letrozol treatment), the “patients with stabilisation of the disease over 6 months” value amounted to 50%. The “size of the tumor” value in series [3] was “significantly decreased”. For the same compound, in series [4], the tumor size result is given as “reduction in tumor size”.

`C[C@]12CC[C@H]3[C@@H](CCC4C(O)C(O)CC[C@@]43C)[C@@H]1CC[C@@H]2O` (stereo partly drawn) [4-OHBA, 4-hydroxy-5-alpha-androstane-3-beta,17beta-diol]: in series [5], the “affinity towards ERβ relative to affinity towards ERα” value is recorded as “about 10 times”.

The inhibition is the relative decrease from the control value, in per cent. For `C[C@]12CC[C@H]3[C@@H](CCC4=C(O)C(=O)CC[C@@]43C)[C@@H]1CC[C@@H]2O` [4-OHT, 4-hydroxytestosterone], the “end concentration from which significant inhibition of cell growth takes place” value in series [6] (6 d incubation, absorption at 492 nm) is “at least 5 μM/L”. In addition, the inhibition at 5 µM in series [6] (Homo sapiens, MDA-MB-231, 144 h, 5 μM/L 4-OHT, cell concentration 1.0e3, 6 d, read-out: inhibition of cell growth) is ~50%. Further, the inhibition at 20 µM in series [6] (Homo sapiens, MDA-MB-231, 144 h, 20 μM/L 4-OHT, 6 d, read-out: inhibition of cell growth) is 75 to 80%.

As to `CC(C)(C#N)c1cc(Cn2cncn2)cc(C(C)(C)C#N)c1` [Anastrozol], the treatment success entry in series [2] is given as “not successful”.

On to `N#Cc1ccc(C(c2ccc(C#N)cc2)n2cncn2)cc1` [Letrozol], for which the treatment success entry in series [2] is reported as “not successful”.
